Key:
[1] = molecular target: T1, Human UDP-glucose dehydrogenase (hUGDH) (Homo sapiens, UniProt O60701); experiment: NADH absorbance ([…] nm) steady-state kinetics, global fit of UDP-Glc saturation curves; format: biochemical; design: gene UGDH; recombinant unliganded hUGDH, His tag removed
T1 sequence (O60701 1-494): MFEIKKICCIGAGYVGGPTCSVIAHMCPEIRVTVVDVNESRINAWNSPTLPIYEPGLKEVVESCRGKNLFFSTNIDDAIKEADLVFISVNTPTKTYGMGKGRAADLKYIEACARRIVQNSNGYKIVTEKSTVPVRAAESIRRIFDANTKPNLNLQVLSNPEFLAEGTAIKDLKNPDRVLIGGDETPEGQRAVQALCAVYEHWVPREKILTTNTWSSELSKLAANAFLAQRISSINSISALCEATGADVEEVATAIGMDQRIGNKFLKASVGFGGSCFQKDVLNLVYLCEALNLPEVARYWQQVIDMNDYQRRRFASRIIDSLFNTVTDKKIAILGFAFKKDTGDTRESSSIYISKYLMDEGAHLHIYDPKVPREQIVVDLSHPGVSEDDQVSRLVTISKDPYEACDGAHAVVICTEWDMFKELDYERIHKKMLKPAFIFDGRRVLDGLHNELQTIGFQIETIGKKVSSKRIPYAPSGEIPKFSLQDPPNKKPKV

[2] = molecular target: T1, Human UDP-glucose dehydrogenase (hUGDH); experiment: cryo-EM structure ([…] Å) of copurified complex, HPLC/NMR/MS ligand identification; Ki from global fit of competitive inhibition kinetics; format: biochemical; design: gene UGDH; recombinant hUGDH, N-terminal His tag removed by TEV; hexamer
[3] = substrate: NC(=O)c1ccc[n+]([C@@H]2O[C@H](COP(=O)([O-])OP(=O)(O)OC[C@H]3O[C@@H](n4cnc5c(N)ncnc54)[C@H](O)[C@@H]3O)[C@@H](O)[C@H]2O)c1; experiment: purified protein; format: biochemical, Homo sapiens; conditions: NAD^+ binding (NB) domain; negative cooperativity; varied: cofactor
[4] = molecular target: the molecule itself; experiment: cryo-EM structure; hUGDH:UX4O (copurified UDP-4-keto-xylose bound), 1 mg/mL, 20 mM Hepes pH 7.5, 100 mM NaCl, 1 mM DTT; C2 reconstruction at 2.38 Å, E-omega state

With O=c1ccn([C@@H]2O[C@H](COP(=O)(O)OP(=O)(O)O[C@H]3OC[C@@H](O)[C@H](O)[C@H]3O)[C@@H](O)[C@H]2O)c(=O)[nH]1 [UDP-Xyl, UDP-xylose] as the molecule, how does the Ki [1] read?
Its Ki is 440 ± 20 nM.

O=C1CO[C@H](OP(=O)(O)OP(=O)(O)OC[C@H]2O[C@@H](n3ccc(=O)[nH]c3=O)[C@H](O)[C@@H]2O)[C@H](O)[C@H]1O [UX4O, UDP-4-keto-xylose] was tested. Which Ki [2] did it give?
Its Ki is 750 ± 60 nM.

B1: Human UDP-glucose dehydrogenase (hUGDH) (enzyme)
chain: T1 sequence (O60701 1-494)
notes: UDP-glucose dehydrogenase, human, UniProtKB O60701; also called hUGDH:UX4O (the same protein with copurified UDP-4-keto-xylose); unliganded hUGDH; source: E. coli, purified (TALON column, TEV protease digestion, Superdex 200); not shown: histidine tag, N-terminal, cleaved
Which Km [3] does the source give for B1 here?
The Km was 83.4 ± 10.4 µM.

What about the “stoichiometry N” value [4] of the same molecule?
Its value is 6.
